From PMC8391236, “Effect of Pterostilbene, a Natural Derivative of Resveratrol, in the Treatment of Colorectal Cancer through Top1/Tdp1-Mediated DNA Repair Pathway” (Cancers, 2021)

Experiments:
P53 = test: Western blot for P53; format: cell-based, Human; conditions: CL187 cells, 12 h
Description: CL187 cells were treated with RE or PTE for 6 or 12 h, collected, and placed into lysis buffer (KeyGEN BioTECH, Nanjing, China). The total protein content in the cell lysates was measured using a BCA kit. Equivalent amount of total protein (30 μg) was loaded onto 10% SDS-PAGE gel. Electrophoresis was performed at 80 V for 25 min. After the sample went through concentrated gel, the voltage was adjusted to 120 V. Electrophoresis was stopped when the bromophenol blue band approached the bottom of the gel. After being transferred to PVDF membranes, the samples were incubated separately with 3 types of primary antibodies Top1, Tdp1, and P53 rabbit mAb (CST, Boston, MA, USA), followed by the incubation with secondary antibody goat anti-rabbit IgG (HRP)-conjugated (1:3000). ECL kit (New Cell and Molecular Biotech, Suzhou, China) was used for color development, and the images were collected by the gel imaging system (Tanon-5200, Shanghai, China).

[1] = tested on: subcutaneous CL187 xenograft; test: Subcutaneous CL187 xenograft model; format: in vivo, BABLc/nude mice
Description: CL187 cell suspension was collected at 1 × 10^6 /mL, and 0.1 mL cell was inoculated into the right inguinal region of nude mice. The tumor was no metastasis. The diameter of the transplanted tumor in nude mice was measured with a vernier caliper. After 16-day inoculation (the tumor grew to 90 mm^3), the animals were randomly divided into 7 groups (6 mice per group). The drug was administered by intraperitoneal injection. Blank control group was injected with saline. […] According to the preliminary test results. […] Positive control group was injected with irinotecan (20 mg/kg) twice a week, During the experiment, the changes of body weight of nude mice were recorded, and the anti-tumor effect of the samples was dynamically investigated by measuring tumor diameter. On Day 31 post treatment, the nude mice were sacrificed, and the tumor blocks were removed surgically, weighed, and recorded.

SW480 = test: Cell viability assay (CCK-8); format: cell-based; conditions: Homo sapiens
Description: (§1) PTE or RE were dissolved in DMSO and diluted with culture medium to 1–100 μM. The final concentration of DMSO was less than 0.1%, and 0.1% DMSO as negative control. CPT, as Top1 inhibitor, was diluted to 0.5 μM [36, 37], and FM, as Tdp1 inhibitor was diluted to 25 μM [38]. Exponentially growing cells were seeded in 96-well plates (5 × 10^3 cells/well) for 12 h. Various drugs were added separately and incubated for 24, 48, and 72 h. Cell viability was determined by CCK-8 (Beyotime Biotechnology, Shanghai, China) assay. […]
(§2) The drug concentration required for inhibiting cell proliferation by 50% (IC50) was determined by interpolation from dose-response curves.

CL187 cells = test: Cell cycle analysis by flow cytometry; format: cell-based, Human; conditions: 48 h, blank control 14.70%
Top1 in CL187 cells = Top1 in CL187 cells (Homo sapiens, UniProt P11387); test: Intracellular Top1 enzyme activity assay; format: cell-based; set-up: endogenous in cells; host or cells: CL187 cells (nuclear, mitochondrial and cytoplasmic extracts); conditions: CL187 cells treated 6 h; CPT at 50 μM
Sequence of Top1 in CL187 cells (P11387 2-765): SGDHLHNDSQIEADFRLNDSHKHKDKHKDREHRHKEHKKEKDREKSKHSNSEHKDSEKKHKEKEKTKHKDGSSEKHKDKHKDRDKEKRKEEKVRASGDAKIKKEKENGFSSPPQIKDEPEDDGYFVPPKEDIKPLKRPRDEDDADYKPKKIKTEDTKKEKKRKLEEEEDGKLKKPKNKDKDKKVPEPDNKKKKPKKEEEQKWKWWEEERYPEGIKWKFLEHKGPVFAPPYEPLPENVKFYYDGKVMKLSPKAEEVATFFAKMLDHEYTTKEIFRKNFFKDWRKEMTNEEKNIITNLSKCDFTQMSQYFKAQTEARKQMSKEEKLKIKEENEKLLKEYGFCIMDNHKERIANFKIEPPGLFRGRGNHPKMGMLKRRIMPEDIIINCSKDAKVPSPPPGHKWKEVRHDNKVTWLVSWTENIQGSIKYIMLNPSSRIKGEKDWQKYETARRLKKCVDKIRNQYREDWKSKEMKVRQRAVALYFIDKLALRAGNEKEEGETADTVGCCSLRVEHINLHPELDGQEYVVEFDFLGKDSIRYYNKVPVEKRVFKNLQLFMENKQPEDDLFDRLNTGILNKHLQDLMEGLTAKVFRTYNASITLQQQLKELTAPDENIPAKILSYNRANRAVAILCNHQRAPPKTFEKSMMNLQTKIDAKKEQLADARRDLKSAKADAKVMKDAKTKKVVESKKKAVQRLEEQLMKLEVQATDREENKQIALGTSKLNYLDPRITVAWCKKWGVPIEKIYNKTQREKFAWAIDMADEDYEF
Description: CL187 cells were treated with different concentrations of drugs for 6 h. The supernatant was discarded, and the cells were collected. The extracts of cytoplasm, mitochondria, and nucleus were obtained by the same method as described in Section 2.4.7. The protein concentration of each extract was detected by BCA kit. Enzyme activity reaction was carried out by using 125 ng super helical DNA (pHOT-1) and cell extract. The protein concentration of the extract was guaranteed to be the same in each group. The mixture solution of the pHOT-1 and the cell extract was added into the reaction buffer and incubated for 30 min at 37 °C. The reaction was terminated with loading buffer. The agarose gel electrophoresis was performed, and the images were collected.

Tdp1 mRNA = test: qPCR of Tdp1 mRNA in cells; format: cell-based, Human; conditions: 6 h
Description: CL187 cells were treated with different concentrations of RE and PTE for 6, 12, 24 h, collected, and added with TRIzol (Thermo Fisher Scientific, Waltham, MA, USA). RNA was precipitated by isopropyl alcohol and washed with 75% ethanol prepared from diethylpyrocarbonate (DEPC) water. The obtained total RNA was dissolved in DEPC water and reverse transcribed into cDNA by a Hifair Ⅲ 1st strand cDNA Synthesis SuperMix for qPCR Kit (Yeasen Biotech, Shanghai, China). The resultant cDNA was used as a template, and the primer sequences were (5′→3′): Top1: F: […], R: […]; Tdp1: F: ACCAGAGTTCAGGAAGAAG, R: TCATAGAGCAGCAGCATC. GAPDH: F: […], R: TCTTCCTCTTGTGCTCTTG. Transcription levels of Top1, Tdp1, and GAPDH genes were determined by qPCR. The qPCR was performed as follows: 95 °C for 10 min, 40 cycles of 95 °C for 10 s, and 60 °C for 30 s. The cycle threshold (Ct) value was determined, and the RQ value was calculated.

L02 = test: Proliferation of non-tumor cells (CCK-8); format: cell-based; conditions: Homo sapiens
Description: as §1, with “The” for “PTE or RE were dissolved in DMSO and diluted with culture medium to 1–100 μM. The”
as §2

HCoEpiC- = test: Proliferation of non-tumor cells (CCK-8); format: cell-based
Description: as §1, with “The” for “PTE or RE were dissolved in DMSO and diluted with culture medium to 1–100 μM. The”
as §2

HFL-1 = test: Proliferation of non-tumor cells (CCK-8); format: cell-based; conditions: Homo sapiens, HFL1
Description: as §1, with “The” for “PTE or RE were dissolved in DMSO and diluted with culture medium to 1–100 μM. The”
as §2

[2] = 25 mg/kg i.p. once a day, Day 31
[3] = 50 mg/kg i.p. once a day, Day 31
[4] = 100 mg/kg i.p. once a day, Day 31
[5] = 200 mg/kg i.p. once a day, Day 31

SMILES: COc1cc(/C=C/c2ccc(O)cc2)cc(OC)c1 [PTE, 3,5-dimethoxy-4′-hydroxy-trans-stilbene]
- expression of P53 (WB) (P53): promoted the expression of P53
- Relative Tumor Proliferation Rate (T/C, %) [1, 2]: 53.53%
- Tumor Inhibitory Rate (TGI, %) [1, 2]: 54.24 ± 4.80%
- Tumor Volume [1, 2]: 1.725 ± 0.203 ** cm^3
- Tumor Weight [1, 2]: 1.60 ± 0.17 g
- TGI ([1]; 25 mg/kg, 31 days): 54.24 ± 4.80%
- Relative Tumor Proliferation Rate (T/C, %) [1, 3]: 39.56%
- Tumor Volume [1, 3]: 1.243 ± 0.189 *** cm^3
- Tumor Weight [1, 3]: 1.39 ± 0.19 g
- Relative Tumor Proliferation Rate (T/C, %) [1, 4]: 24.20%
- Tumor Volume [1, 4]: 0.779 ± 0.168 *** cm^3
- Tumor Weight [1, 4]: 0.96 ± 0.11 g
- Relative Tumor Proliferation Rate (T/C, %) [1, 5]: 20.71%
- Tumor Volume [1, 5]: 0.623 ± 0.158 *** cm^3
- Tumor Weight [1, 5]: 0.73 ± 0.09 g
- adverse reactions during the entire treatment process ([1]; subcutaneous CL187 xenograft nude mice, CPT-11 20 mg/kg, PTE 25-200 mg/kg i.p.): did not have the above-mentioned adverse reactions
- IC50 (SW480; SW480, 24 h): 113 ± 24 µM
- IC50 (SW480; SW480, 48 h): 35.7 ± 9.32 µM
- IC50 (SW480; SW480, 72 h): 40.5 ± 10.8 µM
- proportion of G2/M-phase cells (CL187 cells; CL187, 10 μM): 48.69%
- proportion of G2/M-phase cells (CL187 cells; CL187, 20 μM): 52.98%
- proportion of G2/M-phase cells (CL187 cells; CL187, 50 μM): 55.33%
- Top1 enzyme activity in the nucleus (Top1 in CL187 cells): significantly inhibited
- Tdp1 mRNA expression (Tdp1 mRNA; Tdp1-over CL187 cells): did not change significantly
- Tdp1 mRNA expression (Tdp1 mRNA; siRNA-Top1 CL187 cells): inhibited without obvious trend
- Tdp1 mRNA expression (Tdp1 mRNA; wild-type CL187 cells): significantly inhibited
- IC50 (L02; L02, 24 h): 478 µM
- IC50 (L02; L02, 48 h): 248 µM
- IC50 (L02; L02, 72 h): 148 µM
- IC50 (HCoEpiC-; 24 h): 444 µM
- IC50 (HCoEpiC-; 48 h): 250 µM
- IC50 (HCoEpiC-; 72 h): 83.4 µM
- IC50 (HFL-1; HFL-1, 24 h): 339 µM
- IC50 (HFL-1; HFL-1, 48 h): 315 µM
- IC50 (HFL-1; HFL-1, 72 h): 130 µM
